Assay results taken from the supplement of paper PMC10307832.

Experiments:
Experiment in all cases: relative viability (nuclei count vs DMSO), 5 days (fraction); higher = more cells survive
[1] = compound: COc1cc2nc(N3CCCN(C)CC3)nc(NC3CCN(Cc4ccccc4)CC3)c2cc1OC + Cc1nc(Nc2ncc(C(=O)Nc3c(C)cccc3Cl)s2)cc(N2CCN(CCO)CC2)n1 [Dasatinib] (partner 0.075 µM)
Summary of the method: (§1)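 The day after seeding in 1536-well plates, lung cancer cell lines were treated by pin tool with a single drug, or with a fixed anchor-drug dose together with five library-drug doses (not always all listed) in √10 steps. After 5 days, a combined fix-and-stain solution (final 0.05% Triton X-100, 1% formaldehyde, 1 ug/ml Hoechst) was added. Nuclei counted on 4× images gave relative viability as treated counts over vehicle counts, reported as the median of duplicate plates.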

AZD6482 + Trametinib = compound: Cc1cc([C@@H](C)Nc2ccccc2C(=O)O)c2nc(N3CCOCC3)cc(=O)n2c1 [AZD6482] + CC(=O)Nc1cccc(-n2c(=O)n(C3CC3)c(=O)c3c(Nc4ccc(I)cc4F)n(C)c(=O)c(C)c32)c1 [Trametinib] (partner 0.02 µM)
Summary of the method: as §1

AZD6482 + Foretinib = compound: Cc1cc([C@@H](C)Nc2ccccc2C(=O)O)c2nc(N3CCOCC3)cc(=O)n2c1 [AZD6482] + COc1cc2c(Oc3ccc(NC(=O)C4(C(=O)Nc5ccc(F)cc5)CC4)cc3F)ccnc2cc1OCCCN1CCOCC1 [Foretinib] (partner 0.25 µM)
Summary of the method: as §1

AZD6482 + Pictilisib = compound: Cc1cc([C@@H](C)Nc2ccccc2C(=O)O)c2nc(N3CCOCC3)cc(=O)n2c1 [AZD6482] + CS(=O)(=O)N1CCN(Cc2cc3nc(-c4cccc5[nH]ncc45)nc(N4CCOCC4)c3s2)CC1 [Pictilisib] (partner 1 µM)
Summary of the method: as §1

Cell Line	relative viability ([1]; first compound 0.2 µM)	relative viability ([1]; first compound 0.6325 µM)	relative viability ([1]; first compound 2 µM)	relative viability ([1]; first compound 6.325 µM)	relative viability (AZD6482 + Trametinib; first compound 0.08 µM)	relative viability (AZD6482 + Trametinib; first compound 0.253 µM)	relative viability (AZD6482 + Trametinib; first compound 0.8 µM)	relative viability (AZD6482 + Trametinib; first compound 2.53 µM)	relative viability (AZD6482 + Trametinib; first compound 8 µM)	relative viability (AZD6482 + Foretinib; first compound 0.08 µM)	relative viability (AZD6482 + Foretinib; first compound 0.253 µM)	relative viability (AZD6482 + Foretinib; first compound 0.8 µM)	relative viability (AZD6482 + Foretinib; first compound 2.53 µM)	relative viability (AZD6482 + Foretinib; first compound 8 µM)	relative viability (AZD6482 + Pictilisib; first compound 0.08 µM)	relative viability (AZD6482 + Pictilisib; first compound 0.8 µM)	relative viability (AZD6482 + Pictilisib; first compound 2.53 µM)	relative viability (AZD6482 + Pictilisib; first compound 8 µM)	relative viability (AZD6482 + Pictilisib; first compound 0.253 µM)
ChaGo-K-1	0.514	0.617	0.592	0.584	0.922	0.874	0.878	0.803	0.857	0.973	0.863	0.833	0.894	0.968	0.765	1.15	1.01	0.977	
COR-L 105	0.338	0.472	0.328	0.25	0.378	0.451	0.46	0.383	0.423	1.08	0.711	1.03	0.744	0.932	0.362	0.428	0.265	0.309	0.388
NCI-H1975	0.342	0.438	0.464	0.287	0.287	0.32	0.307	0.278	0.39	0.889	0.872	0.951	0.709	0.558	0.249	0.307	0.274	0.258	0.275
NCI-H1993	0.568	0.657	0.657	0.574	0.506	0.498	0.446	0.52	0.475	0.674	0.745	0.846	0.558	0.562	0.907			0.769	0.779
RERF-LC-KJ	0.805	0.812	1.01	0.567	0.767	0.764	0.74	0.682	0.584	0.791	0.825	0.822	0.781	0.7	0.492	0.502	0.535	0.7	0.488
NCI-H23	0.786	0.628	0.859	0.876	0.33	0.34	0.326	0.283	0.247	0.976	0.856	0.922	0.639	0.5	0.465	0.452	0.356	0.494	0.482
HCC-366	0.697	0.599	0.504	0.571	0.266	0.279	0.286	0.182	0.193	0.938	0.897	0.936	0.759	0.447	0.115	0.214	0.127	0.129	0.106
EMC-BAC-2	0.345	0.305	0.327	0.371	0.841	0.956	0.893	0.667	0.706	0.861	0.94	0.969	0.718	0.698	0.487	0.505	0.374	0.555	0.51
NCI-H2405	0.213	0.214	0.2	0.202	0.459	0.559	0.531	0.365	0.395	0.642		0.968	0.608	0.57	0.31	0.559	0.381	0.386	
NCI-H358	0.163	0.205	0.146	0.171	0.133	0.131	0.12	0.117	0.113	0.484	0.706	0.679	0.407	0.489	0.274	0.276	0.202	0.358	0.386
NCI-H1944	0.199	0.245	0.204	0.232	0.38	0.375	0.426	0.351	0.335	0.866	0.892	0.872	0.686	0.697	0.314	0.366	0.246	0.33	0.342
EPLC-272H	0.384	0.411	0.453	0.37	0.251	0.213	0.27	0.234	0.194	0.621	0.426	0.506	0.378	0.256	0.325	0.297	0.287	0.333	
NCI-H1915	0.35	0.355	0.338	0.349	0.257	0.27	0.29	0.239	0.226	1.05	1.02	1.1	1	1.09	0.886	1.03	0.79	0.909	0.916
NCI-H596	0.659	0.652	0.638	0.654	0.633	0.817	0.774	0.589	0.59	0.84	0.853	0.766	0.635	0.599	0.324	0.508	0.343	0.441	0.349
NCI-H322M	0.258	0.281	0.274	0.26	0.51	0.534	0.58	0.452	0.443	0.823	0.847	0.897	0.543	0.738	0.485	0.475	0.353	0.498	0.399
NCI-H2228	0.514	0.488	0.496	0.243	0.342	0.579	0.457	0.484	0.494		0.791	0.862	0.694	0.649	0.368	0.266	0.387	0.387	0.691
NCI-H647	0.201	0.233	0.192	0.149	0.32	0.367	0.333	0.254	0.209	0.86	1.3	0.946	0.721	0.623	0.358	0.38	0.249	0.408	

Cell Line	relative viability ([1]; first compound 0.2 µM)	relative viability ([1]; first compound 0.6325 µM)	relative viability ([1]; first compound 2 µM)	relative viability ([1]; first compound 6.325 µM)	relative viability (AZD6482 + Trametinib; first compound 0.08 µM)	relative viability (AZD6482 + Trametinib; first compound 0.253 µM)	relative viability (AZD6482 + Trametinib; first compound 0.8 µM)	relative viability (AZD6482 + Trametinib; first compound 2.53 µM)	relative viability (AZD6482 + Trametinib; first compound 8 µM)	relative viability (AZD6482 + Foretinib; first compound 0.08 µM)	relative viability (AZD6482 + Foretinib; first compound 0.253 µM)	relative viability (AZD6482 + Foretinib; first compound 0.8 µM)	relative viability (AZD6482 + Foretinib; first compound 2.53 µM)	relative viability (AZD6482 + Foretinib; first compound 8 µM)	relative viability (AZD6482 + Pictilisib; first compound 0.08 µM)	relative viability (AZD6482 + Pictilisib; first compound 0.8 µM)	relative viability (AZD6482 + Pictilisib; first compound 2.53 µM)	relative viability (AZD6482 + Pictilisib; first compound 8 µM)	relative viability (AZD6482 + Pictilisib; first compound 0.253 µM)
SK-MES-1	0.41	0.374	0.386	0.171	0.394	0.454	0.414	0.294	0.291	0.519	0.783	0.565	0.422	0.403	0.285	0.33	0.202	0.35	0.34
NCI-H2170	0.658	0.594	0.638	0.583	0.878	0.879	0.844	0.836	0.733	0.977	1	0.955	0.922	0.785	0.285	0.307	0.258	0.317	0.261
NCI-H2085	0.217	0.306	0.262	0.206	0.266	0.231	0.218	0.223	0.218	0.62	0.637	0.338	0.308	0.29	0.428	0.404	0.33	0.407	0.359
SW 1573	0.453	0.454	0.665	0.295	0.466	0.508	0.526	0.336	0.307	0.792	0.776	0.862	0.726	0.608	0.415	0.445	0.304	0.447	0.459
NCI-H727	0.302	0.461	0.452	0.322	0.382	0.358	0.394		0.386	0.828	0.862	1.03	0.786	0.797	0.357	0.356		0.404	0.302
NCI-H441	0.602	0.616	0.532	0.599	0.422	0.435	0.39		0.312	0.852	0.806	1.21		0.87	0.453	0.408	0.32	0.431	0.389
LOU-NH91	0.525	0.686	0.439	0.59	0.752	0.8	0.757	0.603	0.623	0.826	0.846	0.993	0.603	0.677	0.491	0.516	0.48	0.493	0.513
NCI-H3122	0.969	0.763	0.894	0.765	0.211	0.23	0.184	0.181	0.161	0.937	0.846	1.09	0.946	0.926	0.644	0.642	0.407	0.636	0.572
NCI-H460	0.532	0.534	0.415	0.43	0.138	0.106	0.146	0.0746	0.126	1.03	0.977	1	0.828	0.719	0.332	0.379	0.249	0.331	0.336
NCI-H650	0.48	0.472	0.441	0.38	0.958	0.906	0.805	0.663	0.711	1.02		0.978	0.651	0.704	0.931	0.908	0.541	0.813	
NCI-H661	0.957	0.955	0.966	0.83	0.615	0.555	0.61	0.428	0.387	0.962	1.06	1.14	0.723	0.815	0.326	0.484		0.356	0.353
NCI-H1793	0.378	0.412	0.375	0.375	0.37	0.397	0.352	0.32	0.283	0.575	0.431	0.507	0.3	0.322	0.261	0.293		0.259	0.336
NCI-H1734	0.524	0.37	0.46	0.416	0.613	0.656	0.565	0.519	0.491	0.829	0.788	0.875	0.604	0.671	0.395	0.485	0.305	0.408	0.452
LXF-289	0.263	0.212	0.252	0.213	0.681	0.77	0.801	0.717	0.609	0.912	0.916	0.977	0.938	0.831	0.66	0.739	0.638	0.745	0.736
H3255	0.401	0.5	0.448	0.342	0.604	0.551	0.575	0.402	0.367	1.03	0.662	0.898	0.498	0.627	0.461	0.453	0.305	0.47	0.434
201T	0.573	0.495	0.549	0.557	0.694	0.698	0.704	0.653	0.708	1.07	1.01	1.11	0.734	1.08	0.612	0.66	0.506	0.619	0.672
NCI-H2126	0.583	0.678	0.597	0.502	0.538	0.531	0.448	0.39	0.351	1.08	0.954	1.12	0.757	0.724	0.446	0.494	0.368	0.483	0.513
